| melting point | SMILES |
| --- | --- |
| 185 to 186 °C | O=C(NN1CCCCCC1)c1nc(-c2ccc(Cl)cc2Cl)c(-c2ccc(Cl)cc2)s1 |
| 99 to 101 °C | O=C(NCCCC(F)(F)F)c1nc(-c2ccc(Cl)cc2Cl)c(-c2ccc(Cl)cc2)s1 |
| 167 to 168 °C | O=C(Nc1ccccc1)c1nc(-c2ccc(Cl)cc2Cl)c(-c2ccc(Cl)cc2)s1 |
| 171 to 173 °C | O=C(NN1CCCCC1)c1nc(-c2ccc(Cl)cc2Cl)c(-c2ccc(Br)cc2)s1 |

Reference: US7342032B2 (dated 2008)
